Assays:
[1] = tested on: MCF7 SEMA7A OE cells; test: MCF7 EV and SEMA7A over-expressing cells treated with endocrine therapy and/or PI3K inhibitor; type: cell-based, human
Description: Cell Culture Protocol: Cells were plated in 10 cm plates at ˜1 million cells/plate and incubated overnight to allow adherence. Cell lines and media that were used included McCoy's 5a modified media for HER2+ breast cancer cell line SKBR3 cells, and for MDA-MB-231, MDA-MB-468, MCF-7, and HS578t, culture medium was DMEM. Cells were then treated with the PI3K inhibitor: 0 uM (control), 1 uM, or 10 uM. Treated cells incubated for ˜72 hours. After incubation, cells were imaged, then harvested with 0.25% trypsin/EDTA and counted using trypan blue viability stain with Nexcelom Cellometer Mini. The MDA-MB-231 cell line is an epithelial, human breast cancer cell line that was established from a pleural effusion of a patient with metastatic mammary adenocarcinoma.
FIG. 13A, FIG. 13B, and FIG. 13C. […] MCF7EV and SEMA7A OE cells were treated for 48 hours with A) fulvestrant (7.5 nM), B} Alpelisib (1 uM), or C) the combination.
FIG. 14A, FIG. 14B, FIG. 14C, FIG. 14D, and FIG. 14E. SEMA7A-expressing cells are sensitive to both Alpelisib and a novel PI3K inhibitor (GCT.BR.1) FIG. 14A) MCF7 cells treated with vehicle, 1 uM Alpelisib and 1 uM GCT.BR.1. Scalebar=10 microns. FIG. 14B) Quantification of A. FIG. 14C) MCF7 S7 OE spheroids in suspension were treated with vehicle (DMSO), 1 uM Alpelisib or 0.5 uM GCT and stained with Calcein green viability dye after 48 h. […]

[2] = orally available; literature statement; cited from earlier work

With `Cc1nc(NC(=O)N2CCC[C@H]2C(N)=O)sc1-c1ccnc(C(C)(C)C(F)(F)F)c1` [Alpelisib] the “sensitivity of SEMA7A-expressing cells” value ([1]; MCF7, 1 uM, FIG. 14) was “sensitive”.

For `CC1(C)OCCn2c1nc1c(N3CCOCC3)nc(-c3cnc(N)nc3)nc12` [GDC 0084], the “blood brain barrier permeation” value [2] is given as “can permeate the blood brain barrier”.

In the case of `C[C@]12CC[C@@H]3c4ccc(O)cc4C[C@@H](CCCCCCCCC[S+]([O-])CCCC(F)(F)C(F)(F)F)[C@H]3[C@@H]1CC[C@@H]2O` (stereo partly drawn) [fulvestrant], the “response of SEMA7A over-expressing cells to treatment” value ([1]; 48 hours, fulvestrant 7.5 nM, Alpelisib 1 uM, FIG. 13) is reported as “respond poorly”.
